Assays:
[1] = test system: CYP2B6; design: method as in PMID 25429674; conditions: ref [9]; cited from earlier work
[2] = test system: CYP3A; conditions: ref [9]; cited from earlier work
[3] = biological target: CYP2D6 (Homo sapiens, UniProt P10635); design: method as in PMID 25429674; conditions: ref [9]; cited from earlier work
[4] = biological target: CYP2C19 (Homo sapiens, UniProt P33261); design: method as in PMID 25429674; conditions: ref [9]; cited from earlier work
[5] = biological target: T1, CYP2A6 (Homo sapiens, UniProt P11509); design: method as in PMID 25429674; conditions: ref [9]; cited from earlier work
T1 sequence (P11509 1-494): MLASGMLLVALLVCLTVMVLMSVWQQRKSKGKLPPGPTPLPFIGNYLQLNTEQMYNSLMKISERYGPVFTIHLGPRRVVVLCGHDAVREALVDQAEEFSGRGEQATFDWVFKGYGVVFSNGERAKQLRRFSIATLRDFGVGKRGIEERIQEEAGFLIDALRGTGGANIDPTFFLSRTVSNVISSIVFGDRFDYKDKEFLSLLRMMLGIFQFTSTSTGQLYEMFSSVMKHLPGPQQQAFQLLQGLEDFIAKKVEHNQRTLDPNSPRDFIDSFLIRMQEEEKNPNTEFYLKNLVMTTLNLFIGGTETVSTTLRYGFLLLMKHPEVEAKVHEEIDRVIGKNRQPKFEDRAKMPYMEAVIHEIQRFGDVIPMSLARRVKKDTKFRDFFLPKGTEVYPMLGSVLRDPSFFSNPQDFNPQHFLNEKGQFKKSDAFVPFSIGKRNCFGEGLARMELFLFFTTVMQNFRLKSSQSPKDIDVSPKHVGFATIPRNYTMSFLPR

[6] = biological target: T2, CYP2C8 (Homo sapiens, UniProt P10632); design: method as in Hua et al. [19]; conditions: by CYP2C8; ref Hua et al. [19]; cited from earlier work
T2 sequence (P10632 1-490): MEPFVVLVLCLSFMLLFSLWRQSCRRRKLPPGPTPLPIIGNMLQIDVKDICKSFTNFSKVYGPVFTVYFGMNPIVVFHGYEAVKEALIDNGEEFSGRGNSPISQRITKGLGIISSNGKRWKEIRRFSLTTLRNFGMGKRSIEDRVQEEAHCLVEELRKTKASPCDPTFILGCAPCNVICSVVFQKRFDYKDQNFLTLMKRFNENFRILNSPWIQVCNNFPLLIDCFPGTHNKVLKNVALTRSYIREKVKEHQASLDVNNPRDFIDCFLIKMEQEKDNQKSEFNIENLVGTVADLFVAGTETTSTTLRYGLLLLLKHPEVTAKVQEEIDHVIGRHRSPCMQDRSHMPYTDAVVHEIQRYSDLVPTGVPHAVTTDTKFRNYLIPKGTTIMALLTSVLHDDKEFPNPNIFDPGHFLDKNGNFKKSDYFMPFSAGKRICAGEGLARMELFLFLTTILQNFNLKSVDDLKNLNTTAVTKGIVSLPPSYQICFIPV

[7] = test system: CYP3A; conditions: clinical DDI studies; ref [9]; cited from earlier work
[8] = biological target: T3, CYP1A2 (Homo sapiens, UniProt P05177); conditions: cited from earlier work
T3 sequence (P05177 1-516): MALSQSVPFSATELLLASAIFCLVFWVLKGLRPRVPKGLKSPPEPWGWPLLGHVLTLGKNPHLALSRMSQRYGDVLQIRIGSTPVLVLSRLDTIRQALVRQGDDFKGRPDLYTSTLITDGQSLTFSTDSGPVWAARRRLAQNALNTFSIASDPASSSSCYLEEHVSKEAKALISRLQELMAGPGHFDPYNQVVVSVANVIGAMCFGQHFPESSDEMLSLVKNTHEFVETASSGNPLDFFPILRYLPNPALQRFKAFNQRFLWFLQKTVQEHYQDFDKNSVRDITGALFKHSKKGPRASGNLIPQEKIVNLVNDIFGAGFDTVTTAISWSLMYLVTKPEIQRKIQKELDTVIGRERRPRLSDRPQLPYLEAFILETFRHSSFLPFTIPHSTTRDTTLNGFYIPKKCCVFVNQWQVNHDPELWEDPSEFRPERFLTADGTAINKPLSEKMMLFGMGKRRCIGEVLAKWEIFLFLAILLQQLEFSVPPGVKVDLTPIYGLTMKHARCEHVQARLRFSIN

[9] = test system: CYP3A4; conditions: cited from earlier work
[10] = biological target: T1, CYP2A6; experiment: in vitro CYP450 metabolism inhibition assay in human liver microsomes, CYP2A6 (coumarin); conditions: HLM, substrate coumarin; figure in parentheses not defined
Method: (§1) The incubation conditions employed for each CYP450 isoform were performed, as previously described.
(§2) Buffer solution (0.1 mol/L aqueous phosphate buffer, pH 7.4, 69 µL), NADPH-regenerating solutions (10 µL solution A: 26 mmol/L NADP+, 66 mmol/L glucose-6-phosphate, and 66 mmol/L MgCl2; 2 µL solution B: 40 U/mL glucose-6-phosphate dehydrogenase in 5 mmol/L sodium citrate), and deionized water (69 µL) were added, in a total volume of 150 μL. The tubes were vortex-mixed and preincubated with continuous gentle shaking for 5 min at 37 °C in a shaking water bath. Reactions were initiated by the addition of 50 µL of HLM solution in the tubes which were gently mixed by hand and incubated with continuous gentle shaking at 37 °C. Aliquots of 200 µL ice-cold solvent (Table 1) containing IS (1 µg/mL) were added. […] The supernatants were transferred to glass autosampler vials and submitted to LC-MS/MS analysis (5 µL injection volume) to monitor the substrate metabolite formation.

[11] = test system: CYP1A1; design: method as in PMID 25429674; conditions: ref [9]; cited from earlier work
[12] = biological target: T3, CYP1A2; design: method as in PMID 25429674; conditions: ref [9]; cited from earlier work
[13] = test system: CYP3A4/5; experiment: in vitro CYP450 metabolism inhibition assay in human liver microsomes, CYP3A (midazolam or nifedipine); conditions: human, microsomes, pH 7.4
Method: as §1, §2

CYP2D6, sequence (P10635 whole entry): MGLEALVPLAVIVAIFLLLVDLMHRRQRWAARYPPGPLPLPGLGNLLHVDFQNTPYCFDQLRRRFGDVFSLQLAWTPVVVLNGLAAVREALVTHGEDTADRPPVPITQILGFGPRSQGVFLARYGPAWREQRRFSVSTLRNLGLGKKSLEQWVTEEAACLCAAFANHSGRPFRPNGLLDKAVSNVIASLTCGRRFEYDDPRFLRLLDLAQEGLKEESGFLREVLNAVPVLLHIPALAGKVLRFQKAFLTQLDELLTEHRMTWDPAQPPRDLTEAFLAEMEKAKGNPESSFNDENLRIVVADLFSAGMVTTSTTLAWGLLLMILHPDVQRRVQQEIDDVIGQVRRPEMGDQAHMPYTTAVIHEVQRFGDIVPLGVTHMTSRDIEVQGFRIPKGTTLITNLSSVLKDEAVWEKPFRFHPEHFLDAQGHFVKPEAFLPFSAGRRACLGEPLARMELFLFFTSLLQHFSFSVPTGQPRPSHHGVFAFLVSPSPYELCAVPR
CYP2C19, sequence (P33261 whole entry): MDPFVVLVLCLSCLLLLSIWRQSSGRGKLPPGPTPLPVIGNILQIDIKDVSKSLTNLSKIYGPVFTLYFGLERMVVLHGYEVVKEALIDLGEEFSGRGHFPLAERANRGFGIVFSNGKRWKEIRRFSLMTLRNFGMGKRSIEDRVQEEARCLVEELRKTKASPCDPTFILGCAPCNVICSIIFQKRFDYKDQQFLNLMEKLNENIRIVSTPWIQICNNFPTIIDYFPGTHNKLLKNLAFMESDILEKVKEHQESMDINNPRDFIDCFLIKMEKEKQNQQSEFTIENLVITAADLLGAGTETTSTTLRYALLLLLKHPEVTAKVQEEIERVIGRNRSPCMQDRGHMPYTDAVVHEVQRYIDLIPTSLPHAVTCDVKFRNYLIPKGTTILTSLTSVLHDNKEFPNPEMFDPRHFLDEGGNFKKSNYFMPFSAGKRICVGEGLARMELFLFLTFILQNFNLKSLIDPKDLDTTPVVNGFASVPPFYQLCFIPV

Clc1ccc(COC(Cn2ccnc2)c2ccc(Cl)cc2Cl)c(Cl)c1 (stereo not shown) [miconazole]
in vitro inhibition of CYP2B6 [1]: strongly inhibits | in vitro inhibition of CYP3A [2]: strongly inhibits | in vitro inhibition of CYP2D6 [3]: strongly inhibits | in vitro inhibition of CYP2C19 [4]: strongly inhibits | in vitro inhibition of CYP2A6 [5]: strongly inhibits

CC(=O)O[C@H]1C(=O)[C@@]2(C)[C@H]([C@H](OC(=O)c3ccccc3)[C@]3(O)C[C@H](OC(=O)[C@H](O)[C@@H](NC(=O)c4ccccc4)c4ccccc4)C(C)=C1C3(C)C)[C@]1(OC(C)=O)CO[C@@H]1C[C@@H]2O [Paclitaxel]
fm (fraction metabolized) [6]: 0.5

CCC(C)n1ncn(-c2ccc(N3CCN(c4ccc(OCC5COC(Cn6cncn6)(c6ccc(Cl)cc6Cl)O5)cc4)CC3)cc2)c1=O (stereo not shown) [itraconazole]
clinical CYP3A inhibitor strength [7]: moderate to strong CYP3A inhibitors | in vitro inhibition of CYP2B6 [1]: strongly inhibits | in vitro inhibition of CYP3A [2]: strongly inhibits

OC(Cn1cncn1)(Cn1cncn1)c1ccc(F)cc1F [fluconazole]
clinical CYP3A inhibitor strength [7]: moderate to strong CYP3A inhibitors | in vitro inhibition of CYP3A [2]: moderately inhibits

CCOc1ccc(NC(C)=O)cc1 [Phenacetin]
fm (fraction metabolized) [8]: 0.71

Cc1ncc2n1-c1ccc(Cl)cc1C(c1ccccc1F)=NC2 [Midazolam]
fm (fraction metabolized) [9]: 0.88

N[C@@H]1C[C@H]1c1ccccc1 (racemic) [Tranylcypromine, reference compound]
IC50 [10]: 799 nM

CC(=O)N1CCN(c2ccc(OCC3COC(Cn4ccnc4)(c4ccc(Cl)cc4Cl)O3)cc2)CC1 (stereo not shown) [Ketoconazole]
clinical CYP3A inhibitor strength [7]: moderate to strong CYP3A inhibitors | in vitro inhibition of CYP3A [2]: strongly inhibits | in vitro inhibition of CYP1A1 [11]: strongly inhibits | in vitro inhibition of CYP1A2 [12]: moderately inhibits | IC50 [13]: < 10 nM | in vitro inhibition of CYP2A6 [5]: moderately inhibits

CC[C@@H]([C@H](C)O)n1ncn(-c2ccc(N3CCN(c4ccc(OC[C@@H]5CO[C@@](Cn6cncn6)(c6ccc(F)cc6F)C5)cc4)CC3)cc2)c1=O [posaconazole]
clinical CYP3A inhibitor strength [7]: moderate to strong CYP3A inhibitors | in vitro inhibition of CYP3A [2]: strongly inhibits

— paper PMC9861162 (Pharmaceuticals, 2022)
